Laboratory results published in PMC11578372, “ProT‐Diff: A Modularized and Efficient Strategy for De Novo Generation of Antimicrobial Peptide Sequences by Integrating Protein Language and Diffusion Models” (Advanced Science, 2024).
Read-outs that look alike come from different tables or passages of the source. Where no end group is shown, it is not given here.

Assays:
[1] = 1 µg mL−1 (0.35 µM); cited from earlier work
Text: (§1) In general, a higher antimicrobial potency in antimicrobial peptides often correlates with an elevated risk of heightened cytotoxicity and hemolytic activity. […] However, even at a ...

E. coli [2] = conditions: cited from earlier work
Text: as §1

human cell = conditions: 10 µg mL−1 (3.5 µM); cited from earlier work
Text: as §1

E. coli [3] = format: cell-based, Escherichia coli
Method: (§2) For the MIC determination of selected AMPs, 100 ul bacterial culture with an OD600 value of ≈0.1 was incubated with AMPs at concentrations ranging from 0 to 100 µM at 37 °C for 15–18 h. Herein, the MIC was determined as the minimum concentration of AMPs at which no detectable bacterial growth was observed.
(§3) All experiments were conducted with a minimum of four independent replicates. Student's t‐test was used to compare the means between the experimental and control groups (two‐sided).

all tested bacteria = format: cell-based
Text: Gram‐negative bacteria include E. coli DH5α, E. coli O157: H7 CICC 21530, S. typhimurium CICC 21484, A. baumannii AB6, and P. aeruginosa ATCC 15442. Gram‐positive bacteria included S. aureus ATCC 33591, Methicillin‐resistant MRSA ATCC 43300, B. subtilis ATCC 9372. L. sphaericus CCM 2177. Two E. coli clinical isolates with mgrB mutations from Tongji Hospital (Wuhan, China) were used in this study, namely E. coli mgrB mutant 2^# and E. coli mgrB mutant 23^#.
as §2, §3

[4] = Cytotoxicity against mammalian cells (CCK-8); format: cell-based; conditions: human, 293T, CCK-8, n = 6, read-out: half maximal inhibitory concentration (IC50), cytotoxicity
Method: Cell Counting Kit 8 (CCK‐8) assay was used to assess the cytotoxicity of the AMPs against mammalian cells. Specifically, ≈4000 293T cells were seeded per well in a 96‐well cell culture plate (Corning, US), and were incubated at 37 °C with 5% CO2 for 24 h. Subsequently, the culture medium was replaced by different concentrations of AMPs solution diluted with the medium. The cells were co‐incubated with AMPs solution for an additional 24 h at 37 °C. And then, 10 µl of the CCK‐8 reagent (Beijing Lablead Biotech, China) was added to each well for 2 h of incubation at 37 °C. Finally, OD at 450 nm was measured using an imaging multimode microplate reader (Cytation 3, BioTek, US). Cell viability was defined as the percentage of each concentration relative to the control. Six replicates were used for the CCK‐8 assay.

E. coli DH5α = test: TEM of cell membrane damage; format: cell-based, Escherichia coli; conditions: 1× MIC, 2–8 h, 37 °C
Method: Transmission Electron Microscopy (TEM) was employed to assess the cell membrane damage induced by AMPs. First, 50 µL of E. coli DH5α culture with an OD600 of ≈0.1 were mixed with 50 µL of AMPs solution (at 1× MIC) in a 96‐well plate. This mixture was incubated at 37 °C for 2, 4, 8, and 16 h. Following the incubation period, the bacteria were pelleted by centrifugation at 6,000 rpm for 5 min and fixed with 2.5% (vol/vol) glutaraldehyde in phosphate buffer (PB, 0.1 M, pH 7.4). Subsequently, the cells were postfixed with 1% (wt/vol) osmium tetraoxide in PB for 2 h at 4 °C, and were dehydrated through a graded ethanol series (30%, 50%, 70%, 80%, 90%, 100%, with each step lasting 7 min) before being put in pure acetone by two 10‐min steps. Following dehydration, the samples were subjected to infiltration using progressively mixed combinations of acetone and SPI‐PON812 resin (composed of 16.2 g SPI‐PON812, 10 g DDSA, and 8.9 g NMA) in ratios of 3:1, 1:1, and 1:3. The infiltration medium was then replaced with pure resin. Finally, the cells were embedded in pure resin containing 1.5% BDMA and polymerized for 12 h at 45 °C, followed by an additional 48 h polymerization at 60 °C. Ultrathin sections (70 nm thick) were obtained using a microtome (Leica EM UC6), double‐stained with uranyl acetate and lead citrate, and examined using a transmission electron microscope (FEI Tecnai Spirit 120 kV).

E. coli mgrB mutant 23# = test: Lethal murine acute peritonitis model; format: in vivo, mouse (female BALB/c); conditions: for survival versus PBS treatment group (log-rank test): AMP_2 single IP dose, penicillin 50000 units per kg every 12 h for 3 d
Method: Female BALB/c mice weighing ≈18 g and aged 5–6 weeks were used to build a lethal murine acute peritonitis model according to previously established protocols.^[ [43], [44], [45] ^] The mice were subjected to intraperitoneal injections with E. colimgrB mutant 23^#suspension (0.2 mL per mouse) at concentration of 5×10^5 CFU mL^−1, 5×10^6 CFU mL^−1, 5×10^7 CFU mL^−1, respectively. […] Each group comprised of eight mice.
Subsequently, the mice were administered varying doses of AMP_2 (0.125, 0.25, 0.5, 1, 2, and 4 mg kg^−1) immediately after infection. As controls, the infected mice received intraperitoneal injections of sterile PBS or underwent penicillin treatment (0.2 mL per mouse). The single dose of penicillin administered was 50000 units per kg, and the mice received antibiotic treatment every 12 h for 3 d. The behavior and survival of the animals were monitored over a 7‐day period. Blood samples were collected from the mice before euthanasia for routine blood tests. The experiments were conducted in groups of eight mice.

Row | Substance | hemolysis of cells [1] | MIC (E. coli [2]) | human cell death (human cell) | MIC (E. coli [3]) | MIC / spectrum against the tested bacteria (all tested bacteria) | IC50 at 24 h [4] | bacterial morphology by TEM (E. coli DH5α) | body weight by the sixth day post-infection (E. coli mgrB mutant 23#; 4 mg kg−1 IP, surviving infected mice) | survival versus PBS treatment group (log-rank test) (E. coli mgrB mutant 23#; 8 mice per group) | routine blood components, treatment versus control group (E. coli mgrB mutant 23#; blood collected before euthanasia, infected mice treated with AMP_2) | protection of infected mice (survival) (E. coli mgrB mutant 23#; single IP dose 0.5 mg kg−1 immediately after infection, 5×10^5 CFU mL−1, 7-day observation, 8 mice per group)
1 | melittin | 50% | 1 to 15 µM | > 50% |  |  |  |  |  |  |  | 
2 | KWKFFKKIRKVGKKIRKVIKKIGKAVGAAAQAAGQAANA [AMP_2] |  |  |  | 2.5 µM | ≤ 20 µM | > 40 µM | serious leakage of cellular contents | slight decrease in body weight | significant differences in survival | not significantly different | complete protection
3 | penicillin [reference compound] |  |  |  |  |  |  |  |  | no significant difference |  | 
